Laboratory results: ChEMBL document CHEMBL1131387, “Dimers of 5HT1 ligands preferentially bind to 5HT1B/1D receptor subtypes” (Bioorg Med Chem Lett, 1998)

Experiments:
[1] = target: T1, 5-hydroxytryptamine receptor 1B (Homo sapiens, UniProt P28222); test: Binding affinity was evaluated at human recombinant 5-hydroxytryptamine 1B receptor using [3H]5-CT as radioligand
[2] = target: T2, 5-hydroxytryptamine receptor 1A (Homo sapiens, UniProt P08908); test: Binding affinity was evaluated at human recombinant 5-hydroxytryptamine 1A receptor using [3H]8-OH-DPAT as radioligand
T2 sequence (P08908 whole entry): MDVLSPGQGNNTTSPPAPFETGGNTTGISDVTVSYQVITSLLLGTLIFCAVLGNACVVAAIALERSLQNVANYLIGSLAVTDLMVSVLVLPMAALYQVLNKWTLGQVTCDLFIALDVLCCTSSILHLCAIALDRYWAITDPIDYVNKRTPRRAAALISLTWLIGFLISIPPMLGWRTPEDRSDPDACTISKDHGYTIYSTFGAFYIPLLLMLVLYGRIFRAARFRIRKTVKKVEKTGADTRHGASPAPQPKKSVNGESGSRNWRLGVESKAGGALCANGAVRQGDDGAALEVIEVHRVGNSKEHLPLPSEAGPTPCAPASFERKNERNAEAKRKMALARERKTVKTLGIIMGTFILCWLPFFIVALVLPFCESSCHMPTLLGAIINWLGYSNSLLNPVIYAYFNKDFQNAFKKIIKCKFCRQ

[3] = target: T1, 5-hydroxytryptamine receptor 1B; test: The intrinsic activity was evaluated for its ability to inhibit forskolin-stimulated c-AMP formation mediated by cloned 5-hydroxytryptamine 1B receptor in CHO cell line; Partial Agonist; format: functional, cell-based
[4] = target: 5-hydroxytryptamine receptor 1D (Homo sapiens, UniProt P28221); test: Binding affinity was evaluated at human recombinant 5-hydroxytryptamine 1D receptor using [3H]-5-CT as radioligand
5-hydroxytryptamine receptor 1D, sequence (P28221 whole entry): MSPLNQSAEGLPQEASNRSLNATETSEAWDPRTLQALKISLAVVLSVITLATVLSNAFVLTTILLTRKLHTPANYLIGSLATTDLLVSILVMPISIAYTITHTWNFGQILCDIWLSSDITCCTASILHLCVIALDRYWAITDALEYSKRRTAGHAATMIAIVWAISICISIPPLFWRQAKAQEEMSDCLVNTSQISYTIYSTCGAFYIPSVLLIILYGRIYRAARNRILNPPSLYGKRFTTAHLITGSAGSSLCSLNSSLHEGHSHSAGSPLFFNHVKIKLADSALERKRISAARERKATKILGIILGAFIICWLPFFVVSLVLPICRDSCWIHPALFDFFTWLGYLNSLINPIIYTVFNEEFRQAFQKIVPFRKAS

[5] = target: T1, 5-hydroxytryptamine receptor 1B; test: The intrinsic activity was evaluated for its ability to inhibit forskolin-stimulated c-AMP formation mediated by cloned 5-hydroxytryptamine 1B receptor in CHO cell line; format: functional, cell-based
[6] = target: T1, 5-hydroxytryptamine receptor 1B; test: The intrinsic activity was evaluated for its ability to inhibit forskolin-stimulated c-AMP formation mediated by cloned 5-hydroxytryptamine 1B receptor in CHO cell line; Antagonist; format: functional, cell-based

T1 sequence (P28222 whole entry): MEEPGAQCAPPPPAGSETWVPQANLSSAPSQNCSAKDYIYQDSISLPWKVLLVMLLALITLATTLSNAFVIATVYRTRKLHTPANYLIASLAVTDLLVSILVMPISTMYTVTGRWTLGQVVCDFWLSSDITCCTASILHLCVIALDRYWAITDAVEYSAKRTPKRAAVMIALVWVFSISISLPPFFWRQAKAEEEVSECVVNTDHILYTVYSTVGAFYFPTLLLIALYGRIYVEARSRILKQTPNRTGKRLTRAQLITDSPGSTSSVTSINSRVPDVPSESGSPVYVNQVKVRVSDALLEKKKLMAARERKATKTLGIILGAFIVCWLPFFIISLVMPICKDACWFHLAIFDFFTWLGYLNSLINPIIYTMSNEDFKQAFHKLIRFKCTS

Structure (SMILES)	Ki [1] [nM]	Ki [2] [nM]	EC50 [3]	Ki [4] [nM]	EC50 [5] [nM]	EC50 [6] [nM]
CCCN(CCC)C1CCc2cccc(OCCCCCCOc3cccc4c3CC(N(CCC)CCC)CC4)c2C1 (configuration not stated)	6.4	6.8		3.9	50	
c1ccc2c(N3CCNCC3)cccc2c1	10.6					> 10000
CN1CCN(c2cccc3ccc(OCC(=O)Nc4ccc(NC(=O)COc5ccc6[nH]cc(CCN)c6c5)cc4)cc23)CC1	0.7	5.8	Partial agonist	0.5		

Continued by falling Ki [1], values first:

Ki [1] [nM]	Ki [2] [nM]	EC50 [3]	Ki [4] [nM]	EC50 [5] [nM]	Structure (SMILES)	EC50 [6] [nM]
2.56	4	Partial agonist	1.24		CN1CCN(c2cccc3ccc(OCC(=O)N4CCN(C(=O)COc5ccc6cccc(N7CCN(C)CC7)c6c5)CC4)cc23)CC1	
2.1	14		1.71		CN1CCN(c2cccc3ccc(OCCOc4ccc5cccc(N6CCN(C)CC6)c5c4)cc23)CC1	> 1000
0.76	0.96	Partial agonist	0.4		CN1CCN(c2cccc3ccc(OCCOc4ccc5[nH]cc(CCN)c5c4)cc23)CC1	
